From ChEMBL document CHEMBL4177725, “Design and synthesis of novel pyrimidine analogs as highly selective, non-covalent BTK inhibitors” (Bioorg Med Chem Lett, 2018)
In brackets after ≈: the same amount, converted by molar mass. Activity calls are given as the source filed them. The rule behind the calls is not given here.

Key:
[1] = target: T1, Tyrosine-protein kinase BTK (Homo sapiens, UniProt Q06187); experiment: Inhibition of N-terminal DYKDDDDK tagged and biotinylated BTK activated form (unknown origin) using FITC-labeled Srctide substrate and ATP by microfluidic mobility shift assay
[2] = target: T1, Tyrosine-protein kinase BTK; experiment: Inhibition of His-tagged lambda phosphatase pre-treated N-terminal DYKDDDDK tagged and biotinylated BTK unactivated form (unknown origin) using FITC-labeled Srctide substrate and ATP by microfluidic mobility shift assay
[3] = target: Tyrosine-protein kinase SYK (Homo sapiens, UniProt P43405); experiment: Inhibition of SYK (unknown origin) using FITC-labeled Blk/Lyntide substrate and ATP by microfluidic mobility shift assay
[4] = Stability in human microsomes; format: ADME, Microsome
[5] = Stability in mouse microsomes; format: ADME, Microsome
[6] = Apparent permeability in human Caco2 cells; format: ADME, cell-based; conditions: Caco-2
[7] = target: T1, Tyrosine-protein kinase BTK; experiment: Inhibition of BTK (unknown origin) using FITC-labeled Srctide substrate and ATP by microfluidic mobility shift assay
[8] = Kinetic solubility in phosphate buffer at pH 7.4 incubated for 1 hr at room temperature by LC-UV or LC-MS/MS method; format: physicochemical; conditions: read-out: Kinetic_solubility
[9] = target: T1, Tyrosine-protein kinase BTK; experiment: Inhibition of anti-IgM antibody stimulated BTK Tyr223 autophosphorylation in human Ramos cells at 30 nM pre-incubated for 1 hr followed by anti-IgM stimulation for 10 mins by Western blotting; format: cell-based
[10] = target: T2, Tyrosine-protein kinase Tec (Homo sapiens) (UniProt P42680); experiment: Inhibition of N-terminal GST-fused human TEC catalytic domain (359 to 631 amino acids) at 0.3 uM
T2 sequence (whole entry): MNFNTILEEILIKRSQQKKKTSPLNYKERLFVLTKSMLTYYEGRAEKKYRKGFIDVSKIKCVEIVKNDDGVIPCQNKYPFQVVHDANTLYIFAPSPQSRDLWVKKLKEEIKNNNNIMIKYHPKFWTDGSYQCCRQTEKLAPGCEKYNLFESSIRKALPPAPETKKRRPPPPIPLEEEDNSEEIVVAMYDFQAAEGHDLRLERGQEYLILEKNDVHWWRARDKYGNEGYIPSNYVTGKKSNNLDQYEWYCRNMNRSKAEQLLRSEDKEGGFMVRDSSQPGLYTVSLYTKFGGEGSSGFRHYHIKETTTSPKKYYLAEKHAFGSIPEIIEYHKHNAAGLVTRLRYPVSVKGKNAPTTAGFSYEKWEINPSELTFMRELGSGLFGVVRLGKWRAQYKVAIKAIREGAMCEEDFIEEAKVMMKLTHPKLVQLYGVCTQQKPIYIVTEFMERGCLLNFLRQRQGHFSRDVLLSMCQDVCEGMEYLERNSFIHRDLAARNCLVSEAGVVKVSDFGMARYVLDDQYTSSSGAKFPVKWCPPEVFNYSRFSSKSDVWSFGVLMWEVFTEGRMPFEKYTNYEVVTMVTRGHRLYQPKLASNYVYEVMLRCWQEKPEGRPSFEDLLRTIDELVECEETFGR

[11] = AUC (0 to infinity) in ICR mouse at 10 mg/kg, po; format: ADME, organism-based; parameters: dose 10 mg/kg, time infinity, route oral; conditions: in vivo
[12] = Half life in ICR mouse at 2 mg/kg, iv; format: ADME, organism-based; conditions: in vivo
[13] = Tmax in ICR mouse at 10 mg/kg, po; format: ADME, organism-based; conditions: in vivo
[14] = Half life in ICR mouse at 10 mg/kg, po; format: ADME, organism-based; conditions: in vivo
[15] = target: Voltage-gated inwardly rectifying potassium channel KCNH2 (Homo sapiens, UniProt Q12809); experiment: Inhibition of human ERG
[16] = MRT (0 to infinity) in ICR mouse at 2 mg/kg, iv; format: ADME, organism-based; conditions: in vivo
[17] = Clearance in ICR mouse at 2 mg/kg, iv; format: ADME, organism-based; conditions: in vivo
[18] = AUC (0 to infinity) in ICR mouse at 2 mg/kg, iv; format: ADME, organism-based; parameters: dose 2 mg/kg, route intravenous, time infinity; conditions: in vivo
[19] = Cmax in ICR mouse at 2 mg/kg, iv; format: ADME, organism-based; parameters: dose 2 mg/kg, route intravenous; conditions: in vivo
[20] = Tmax in ICR mouse at 2 mg/kg, iv; format: ADME, organism-based; conditions: in vivo
[21] = Oral bioavailability in ICR mouse at 10 mg/kg; format: ADME, organism-based; conditions: in vivo
Mus musculus = experiment: Inhibition of passive cutaneous anaphylaxis reaction in anti-DNP IgE sensitized mouse model of passive cutaneous anaphylaxis at 30 mg/kg, po dosed 46 hrs before DNP-BSA/dye mixture injection and measured after 30 mins; format: functional
[22] = Cmax in ICR mouse at 10 mg/kg, po; format: ADME, organism-based; parameters: dose 10 mg/kg, route oral; conditions: in vivo
[23] = AUC (0 to t) in ICR mouse at 10 mg/kg, po; format: ADME, organism-based; conditions: in vivo
[24] = MRT (0 to infinity) in ICR mouse at 10 mg/kg, po; format: ADME, organism-based; conditions: in vivo
[25] = Apparent volume of distribution in ICR mouse at 2 mg/kg, iv; format: ADME, organism-based; conditions: in vivo, read-out: Vz
[26] = AUC (0 to t) in ICR mouse at 2 mg/kg, iv; format: ADME, organism-based; conditions: in vivo
[27] = target: T3, Cytoplasmic tyrosine-protein kinase BMX (Homo sapiens) (UniProt P51813); experiment: Inhibition of N-terminal GST-fused human full length BMX at 0.3 uM
T3 sequence (whole entry): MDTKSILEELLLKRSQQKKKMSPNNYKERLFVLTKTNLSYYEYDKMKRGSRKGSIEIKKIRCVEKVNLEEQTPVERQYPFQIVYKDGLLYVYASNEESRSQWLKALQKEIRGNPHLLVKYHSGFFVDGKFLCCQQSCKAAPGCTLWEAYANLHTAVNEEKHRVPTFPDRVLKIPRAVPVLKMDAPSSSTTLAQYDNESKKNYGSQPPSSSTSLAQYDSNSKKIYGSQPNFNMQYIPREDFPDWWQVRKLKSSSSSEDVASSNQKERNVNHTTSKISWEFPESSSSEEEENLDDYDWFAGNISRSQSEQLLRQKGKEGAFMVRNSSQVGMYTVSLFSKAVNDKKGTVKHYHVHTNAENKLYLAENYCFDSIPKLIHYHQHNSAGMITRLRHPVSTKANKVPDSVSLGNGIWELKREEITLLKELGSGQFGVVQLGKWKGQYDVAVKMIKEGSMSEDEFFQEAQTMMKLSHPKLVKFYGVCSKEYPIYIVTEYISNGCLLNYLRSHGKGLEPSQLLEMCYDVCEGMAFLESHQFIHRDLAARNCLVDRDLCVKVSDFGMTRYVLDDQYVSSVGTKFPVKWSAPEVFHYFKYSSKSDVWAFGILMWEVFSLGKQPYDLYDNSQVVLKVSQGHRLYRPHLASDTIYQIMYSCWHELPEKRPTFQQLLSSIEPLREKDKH

T1 sequence (Q06187 whole entry): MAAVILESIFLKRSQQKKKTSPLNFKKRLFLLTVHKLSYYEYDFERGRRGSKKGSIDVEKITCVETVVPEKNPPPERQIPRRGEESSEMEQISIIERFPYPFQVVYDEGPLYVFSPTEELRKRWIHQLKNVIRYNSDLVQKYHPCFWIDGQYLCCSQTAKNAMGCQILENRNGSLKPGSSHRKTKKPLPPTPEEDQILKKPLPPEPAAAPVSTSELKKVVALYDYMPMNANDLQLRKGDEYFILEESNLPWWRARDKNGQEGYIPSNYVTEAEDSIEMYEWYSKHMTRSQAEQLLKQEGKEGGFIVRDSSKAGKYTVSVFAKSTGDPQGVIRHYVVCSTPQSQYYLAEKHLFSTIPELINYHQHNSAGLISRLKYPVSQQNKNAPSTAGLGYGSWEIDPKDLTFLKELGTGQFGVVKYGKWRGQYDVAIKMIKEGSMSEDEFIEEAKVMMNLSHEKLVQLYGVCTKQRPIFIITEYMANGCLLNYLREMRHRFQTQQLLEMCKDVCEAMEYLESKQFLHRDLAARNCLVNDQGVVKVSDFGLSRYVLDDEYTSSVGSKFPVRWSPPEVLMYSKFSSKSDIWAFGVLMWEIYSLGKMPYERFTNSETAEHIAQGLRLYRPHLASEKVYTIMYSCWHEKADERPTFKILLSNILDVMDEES
Chain of Voltage-gated inwardly rectifying potassium channel KCNH2 (Q12809 whole entry): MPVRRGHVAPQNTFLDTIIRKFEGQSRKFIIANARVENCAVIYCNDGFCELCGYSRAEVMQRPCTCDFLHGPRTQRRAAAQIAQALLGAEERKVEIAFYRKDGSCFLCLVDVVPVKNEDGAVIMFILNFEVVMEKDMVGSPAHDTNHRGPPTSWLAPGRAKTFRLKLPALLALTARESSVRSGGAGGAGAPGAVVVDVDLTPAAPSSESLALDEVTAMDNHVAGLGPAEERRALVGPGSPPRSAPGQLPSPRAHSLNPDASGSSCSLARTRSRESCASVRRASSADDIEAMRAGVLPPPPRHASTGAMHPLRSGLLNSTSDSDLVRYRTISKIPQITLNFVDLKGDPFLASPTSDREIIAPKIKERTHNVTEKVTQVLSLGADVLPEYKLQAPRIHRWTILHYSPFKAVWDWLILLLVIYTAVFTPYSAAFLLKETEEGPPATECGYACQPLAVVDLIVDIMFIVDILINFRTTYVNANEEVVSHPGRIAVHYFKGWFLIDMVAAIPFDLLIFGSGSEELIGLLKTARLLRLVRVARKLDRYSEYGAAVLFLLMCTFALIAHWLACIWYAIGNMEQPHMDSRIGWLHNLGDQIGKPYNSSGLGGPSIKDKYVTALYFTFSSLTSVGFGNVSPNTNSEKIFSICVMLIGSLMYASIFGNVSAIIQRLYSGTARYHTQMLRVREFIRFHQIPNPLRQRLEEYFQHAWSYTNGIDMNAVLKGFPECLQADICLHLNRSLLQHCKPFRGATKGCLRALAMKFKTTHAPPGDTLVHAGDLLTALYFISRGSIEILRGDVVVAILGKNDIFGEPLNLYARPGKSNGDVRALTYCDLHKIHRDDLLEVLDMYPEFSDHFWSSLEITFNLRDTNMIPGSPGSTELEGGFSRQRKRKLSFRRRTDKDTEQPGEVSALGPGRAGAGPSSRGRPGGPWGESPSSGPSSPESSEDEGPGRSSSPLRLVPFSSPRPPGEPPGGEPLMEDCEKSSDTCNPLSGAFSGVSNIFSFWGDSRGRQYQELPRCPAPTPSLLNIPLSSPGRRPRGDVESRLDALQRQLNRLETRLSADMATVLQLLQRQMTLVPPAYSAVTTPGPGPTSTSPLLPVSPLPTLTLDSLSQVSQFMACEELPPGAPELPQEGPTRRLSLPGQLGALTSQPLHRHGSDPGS

## Cn1ccc(Nc2nc(N)cc(-c3cccc(-n4ccc5cc(C6CC6)cc(F)c5c4=O)c3CO)n2)n1
[1]
  IC50: 245 nM
[2]
  IC50: 13.9 nM

## Cc1c(NC(=O)c2ccc(C(C)(C)C)cc2)cccc1-c1ccnc(Nc2ccc(C(=O)N3CCOCC3)cc2)n1
[3]
  IC50: > 10000 nM
[4]
  Stability: Unstable
[5]
  Stability: Unstable

## CC(C)(C)n1cc(Nc2nc(N)cc(-c3cccc(-n4ccc5cc(C6CC6)cc(F)c5c4=O)c3CO)n2)cn1
[6]
  Papp: 5.7 ×10⁻⁶ cm/s
[1]
  IC50: 11 nM
[2]
  IC50: 0.6 nM

## Nc1cc(-c2cccc(-n3ccc4cc(C5CC5)cc(F)c4c3=O)c2CO)nc(Nc2cn[nH]c2)n1
[1]
  IC50: 8.1 nM

## Cc1c(NC(=O)c2ccc(C(C)(C)C)cc2)cccc1-c1ccnc(Nc2ccc3[nH]ncc3c2)n1
[3]
  IC50: > 10000 nM
[4]
  Stability: Unstable
[7]
  IC50: 40 nM
[5]
  Stability: Unstable

## Nc1cc(-c2cccc(-n3ccc4cc(C5CC5)cc(F)c4c3=O)c2CO)nc(Nc2cnn(C3(CO)CC3)c2)n1
[6]
  Papp: 0.7 ×10⁻⁶ cm/s
[1]
  IC50: 12 nM
[2]
  IC50: 0.6 nM

## Nc1cc(-c2cccc(-n3ccc4cc(C5CC5)cc(F)c4c3=O)c2CO)nc(Nc2cnn(CC(F)F)c2)n1
[6]
  Papp: 3.1 ×10⁻⁶ cm/s
[8]
  solubility kinetic at 1 h: 2.1 µM (≈ 1.15 µg/mL)
[1]
  IC50: 3.3 nM
[2]
  IC50: 0.2 nM

## Cn1ccc(Nc2nc(N)cc(-c3cccc(-n4ccc5cc(C6CC6)cc(F)c5c4=O)c3CO)n2)c1
[1]
  IC50: 62 nM
[2]
  IC50: 17 nM

## CC(=O)c1cc(Nc2nc(N)cc(-c3cccc(-n4ccc5cc(C6CC6)cc(F)c5c4=O)c3CO)n2)cn1C
[1]
  IC50: 5.9 nM

## COc1ccc(Nc2nc(N)cc(-c3cccc(-n4ccc5cc(C6CC6)cc(F)c5c4=O)c3CO)n2)cc1
[1]
  IC50: 39 nM
[2]
  IC50: 2.5 nM

## CC(C)n1cc(Nc2nc(N)cc(-c3cccc(-n4ccc5cc(C6CC6)cc(F)c5c4=O)c3CO)n2)cn1
[6]
  Papp: 3.7 ×10⁻⁶ cm/s
[8]
  solubility kinetic at 1 h: 4 µM (≈ 2.1 µg/mL)
[1]
  IC50: 2.6 nM
[2]
  IC50: 0.2 nM

## Cn1cc(Nc2nc(N)cc(-c3cccc(-n4ccc5cc(C6CC6)cc(F)c5c4=O)c3CO)n2)cc1C#N
[1]
  IC50: 20.2 nM

## COc1cc(Nc2nccc(-c3cccc(NC(=O)c4ccc(C(C)(C)C)cc4)c3C)n2)cc(OC)c1OC
[3]
  IC50: > 10000 nM
[4]
  Stability: Unstable
[7]
  IC50: 6.1 nM
[5]
  Stability: Unstable

## CC(C)(C)c1ccc(C(=O)Nc2cccc(-c3ccnc(Nc4ccc5cc[nH]c5c4)n3)c2)cc1
[3]
  IC50: > 10000 nM
[4]
  Stability: Unstable
[7]
  IC50: 52 nM
[5]
  Stability: Unstable

## Nc1cc(-c2cccc(-n3ccc4cc(C5CC5)cc(F)c4c3=O)c2CO)nc(Nc2cnn(C3CC3)c2)n1
[6]
  Papp: 6.9 ×10⁻⁶ cm/s
[9]
  inhibition: Active
[10]
  inhibition: 92%
[11]
  AUC(0-inf): 19100 ng·h/mL
[12]
  half-life: 1.09 h
[13]
  Tmax: 1 h
[14]
  half-life: 1.31 h
[15]
  inhibition (INH): Active
[16]
  MRT inf: 1.36 h
[17]
  clearance: 10.5 mL/min/kg
[18]
  AUC(0-inf): 3170 ng·h/mL
[8]
  solubility kinetic at 1 h: 9.8 µM (≈ 5.13 µg/mL)
[19]
  Cmax: 2260 ng/mL
[20]
  Tmax: 4.98 min
[1]
  IC50: 2.8 nM
[21]
  bioavailability: 120%
Mus musculus
  inhibition in vivo at 30 mg/kg: 46%
[22]
  Cmax: 5940 ng/mL
[23]
  AUC(0-t): 18700 ng·h/mL
[24]
  MRT inf: 2.24 h
[25]
  Vd: 1 L/kg
[26]
  AUC(0-t): 3150 ng·h/mL
[27]
  inhibition: 70%

## CC(C)(C)c1ccc(C(=O)Nc2cccc(-c3ccnc(Nc4ccc5cn[nH]c5c4)n3)c2)cc1
[3]
  IC50: 360 nM
[7]
  IC50: 7300 nM

## Cc1c(NC(=O)c2ccc(C(C)(C)C)cc2)cccc1-c1ccnc(Nc2ccc3cn[nH]c3c2)n1
[3]
  IC50: > 10000 nM
[4]
  Stability: Unstable
[7]
  IC50: 440 to 450 nM
[5]
  Stability: Unstable

## CCn1cc(Nc2nc(N)cc(-c3cccc(-n4ccc5cc(C6CC6)cc(F)c5c4=O)c3CO)n2)cn1
[6]
  Papp: 5.4 ×10⁻⁶ cm/s
[1]
  IC50: 10 nM
[2]
  IC50: 0.4 nM

## CN1CCN(c2ccc(Nc3nc(N)cc(-c4cccc(-n5ccc6cc(C7CC7)cc(F)c6c5=O)c4CO)n3)cc2)CC1
[1]
  IC50: 5.3 nM

## Nc1cc(-c2cccc(-n3ccc4cc(C5CC5)cc(F)c4c3=O)c2CO)nc(Nc2cnn(CC3CC3)c2)n1
[6]
  Papp: 6.1 ×10⁻⁶ cm/s
[8]
  solubility kinetic at 1 h: 6.3 µM (≈ 3.39 µg/mL)
[1]
  IC50: 3.4 nM

## Nc1cc(-c2cccc(-n3ccc4cc(C5CC5)cc(F)c4c3=O)c2CO)nc(Nc2ccc(N3CCOCC3)cc2)n1
[1]
  IC50: 12.9 nM
[2]
  IC50: 0.6 nM

## Cn1cc(Nc2nc(N)cc(-c3cccc(-n4ccc5cc(C6CC6)cc(F)c5c4=O)c3CO)n2)cn1
[6]
  Papp: 6.3 ×10⁻⁶ cm/s
[9]
  inhibition: Active
[11]
  AUC(0-inf): 12800 ng·h/mL
[12]
  half-life: 1.12 h
[13]
  Tmax: 0.5 h
[14]
  half-life: 0.96 h
[16]
  MRT inf: 1.13 h
[17]
  clearance: 9.67 mL/min/kg
[18]
  AUC(0-inf): 3480 ng·h/mL
[8]
  solubility kinetic at 1 h: 18 µM (≈ 8.96 µg/mL)
[19]
  Cmax: 2950 ng/mL
[20]
  Tmax: 4.98 min
[1]
  IC50: 3.7 nM
[21]
  bioavailability: 73.7%
[22]
  Cmax: 4540 ng/mL
[23]
  AUC(0-t): 12700 ng·h/mL
[24]
  MRT inf: 1.91 h
[25]
  Vd: 0.93 L/kg
[26]
  AUC(0-t): 3460 ng·h/mL
[2]
  IC50: 0.4 nM

## Nc1cc(-c2cccc(-n3ccc4cc(C5CC5)cc(F)c4c3=O)c2CO)nc(Nc2ccc(CN3CCOCC3)cc2)n1
[1]
  IC50: > 10000 nM
[2]
  IC50: 309 nM
